The record followed here is patent US20260226019A1, “NEGATIVE ALLOSTERIC MODULATORS OF METABOTROPIC GLUTAMATE RECEPTOR 2” (Vanderbilt University, priority 2023, published 2026).

In this test the target is T1, human mGlu2 (Homo sapiens, UniProt Q14416).
T1 construct: expressed in transfected cells; host or cells: HEK-293 stably co-expressing GIRK channels
T1 sequence (Q14416 19-872): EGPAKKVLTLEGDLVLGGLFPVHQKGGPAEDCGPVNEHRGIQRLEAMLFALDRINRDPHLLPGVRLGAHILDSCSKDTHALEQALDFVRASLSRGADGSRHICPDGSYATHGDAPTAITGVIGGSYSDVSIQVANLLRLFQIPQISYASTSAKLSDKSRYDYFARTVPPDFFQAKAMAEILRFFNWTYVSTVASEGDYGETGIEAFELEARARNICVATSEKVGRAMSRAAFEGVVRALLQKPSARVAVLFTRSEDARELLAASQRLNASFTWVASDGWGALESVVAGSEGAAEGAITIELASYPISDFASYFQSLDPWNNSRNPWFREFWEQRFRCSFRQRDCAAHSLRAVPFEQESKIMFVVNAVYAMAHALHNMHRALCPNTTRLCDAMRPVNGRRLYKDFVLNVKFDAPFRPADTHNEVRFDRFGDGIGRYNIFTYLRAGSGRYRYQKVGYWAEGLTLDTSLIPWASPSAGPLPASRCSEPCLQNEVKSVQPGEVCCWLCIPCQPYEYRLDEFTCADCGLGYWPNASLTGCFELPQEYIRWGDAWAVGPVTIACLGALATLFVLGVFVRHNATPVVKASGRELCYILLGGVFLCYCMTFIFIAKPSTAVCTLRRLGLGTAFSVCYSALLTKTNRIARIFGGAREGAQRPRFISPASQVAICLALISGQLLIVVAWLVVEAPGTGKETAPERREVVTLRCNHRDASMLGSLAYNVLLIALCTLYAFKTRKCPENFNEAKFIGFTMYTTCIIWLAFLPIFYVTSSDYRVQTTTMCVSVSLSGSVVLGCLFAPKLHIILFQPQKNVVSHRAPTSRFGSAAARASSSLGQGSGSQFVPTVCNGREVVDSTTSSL
As to the kind of experiment: mGlu GIRK cell-based thallium flux assay, human mGlu2. The conditions noted are these: HEK-293 cells co-expressing human mGlu2 and GIRK, EC80 glutamate, single experiment. The method, then: Human embryonic kidney (HEK-293) cell lines stably co-expressing human or rat mGlu2 and G protein-coupled inwardly rectifying potassium (GIRK) channels, or human mGlu3 and GIRK, were used for in vitro evaluation of compound activity in thallium flux assay using a fluorescent thallium indicator dye.
The day before the assay, GIRK cells co-expressing human mGlu3, human or rat mGlu2, as described above, were plated in black-walled, clear-bottomed, amine-coated 384-well plates at a density of 15,000 cells/[…]/well in the assay medium (glutamine-depleted basal DMEM supplemented with 10% dialyzed FBS, 20 mM HEPES, 1 mM sodium pyruvate). Cells were incubated at 37° C. in the presence of 5% CO2. The next day, assay buffer (Hanks balanced salt solution, 20 mM HEPES, 4.16 mM sodium bicarbonate, pH 7.2) was prepared to dilute compounds and Thallos AM fluorescent dye solution. The 2× Thallos dye solution (final concentration 0.34 μM to the cells) was prepared by mixing the dye stock (2.97 mM in DMSO) to 1:1 with 10% pluronic acid before adding to the assay buffer. Cells were washed with assay buffer using a microplate washer to remove the medium, resulting in 20 μL of buffer remaining in each well. […] During the cell dye loading incubation period, a 10-point concentration serial dilution of compound was created from a 10 mM DMSO compound stock by performing a 1:3 serial dilution in DMSO using the Bravo liquid handler. The 2× compound plate was generated by transferring 0.24 μL of the diluted compound in each well to a daughter plate using an Echo acoustic liquid handler. This is further diluted in 40 μL assay buffer, resulting in a range from […] to 1.5 nM final concentration in the assay. The agonist plate (5×) was prepared to include EC80 glutamate concentration (a concentration to elicit 80% of a maximally effective glutamate concentration) in thallium buffer (125 mM sodium bicarbonate, 1 mM magnesium sulfate, 1.8 mM calcium sulfate, 5 mM glucose, 10 mM HEPES, pH 7.2, 12.5 mM thallium sulfate).
After dye-loading, cell plates were washed with assay buffer to remove excess extracellular dye using a microplate washer, resulting in 20 μL of buffer remaining in each well. After a ten-minute equilibration period, cell, compound and agonist plates were loaded into a Hamamatsu μCell kinetic imaging plate reader equipped with liquid handler to monitor fluorescence changes at 480 nm excitation and 540 nm emission settings. Briefly, after collection of baseline fluorescence, 20 μL of compound was added and incubated for two minutes and twenty seconds. This is immediately followed by adding 10 μL of glutamate-thallium buffer to the wells containing compound. The fluorescent signal was monitored an additional 2.5 minutes after the glutamate addition. Multiple reference wells containing no compound received either no glutamate (for a baseline reference), EC80 glutamate, or ECmax glutamate (for normalization to maximum response). […] Each compound concentration series occurred one time in each plate, and replicates from two or three plates were used in each experimental run. Thallium solutions were handled and disposed of according to guidelines from the Vanderbilt University Chemical Safety department.
Data were normalized using a static ratio function (F/F0) by dividing every fluorescent measurement by the initial fluorescent value for the corresponding well. The increase in signal resulting from the glutamate/thallium addition of the second add was measured by determining the slope from 3 seconds to 13 seconds after the addition. The average of all baseline slopes (no compound, no glutamate) was determined and this value was subtracted from all other slope values. The average of all ECmax slopes was determined and this value was used to normalize the baseline-corrected slopes to a percent max value (% Emax).
Regarding `Cc1c(-c2cc(C3CCOCC3)cc3c2CNC3=O)cnn1C` [Compound 99, 4-(1,5-dimethyl-1H-pyrazol-4-yl)-6-(tetrahydro-2H-pyran-4-yl)isoindolin-1-one], the IC50 was found to be 2950 nM.
`Cc1cnn(C)c1-c1cc(C2=CCOCC2)cc2c1CNC2=O` [Compound 94, 6-(3,6-dihydro-2H-pyran-4-yl)-4-(1,4-dimethyl-1H-pyrazol-5-yl)isoindolin-1-one] yielded an IC50 of 340 nM.
Regarding `COc1cc(C#N)ccc1-c1cc2c(c(-c3cnsc3)c1)CNC2=O` [Compound 53, 4-(7-(isothiazol-4-yl)-3-oxoisoindolin-5-yl)-3-methoxybenzonitrile], the “Human mGlu2 GIRK IC50 (nM)” value is “Inactive”.
For `N#Cc1c(F)ccc(-c2cc3c(c(-c4cnsc4)c2)CNC3=O)c1F` [Compound 55, 2,6-difluoro-3-(7-(isothiazol-4-yl)-3-oxoisoindolin-5-yl)benzonitrile], the IC50 is greater than 10000 nM.
Regarding `O=C1NCc2c1cc(-c1ccc(F)cc1F)cc2-c1cncnc1` [Compound 37, 6-(2,4-difluorophenyl)-4-(pyrimidin-5-yl)isoindolin-1-one], inhibition was half-maximal at 950 nM (IC50).
On the same count and under the same terms, then `O=C1NCc2c1cc(-c1ccc(F)cc1F)cc2-c1ccc2cccnc2c1` [Compound 22, 6-(2,4-difluorophenyl)-4-(quinolin-7-yl)isoindolin-1-one], with 2380 nM; and `Cc1ncccc1-c1cc(C2=CCOCC2)cc2c1CNC2=O` [Compound 97, 6-(3,6-dihydro-2H-pyran-4-yl)-4-(2-methylpyridin-3-yl)isoindolin-1-one], with 195 nM.
For the compound `O=C1CC2(CN1)CN(c1cc(-c3ccc(F)cc3F)cc3c1CNC3=O)C2` [Compound A20, 6-(2,4-difluorophenyl)-4-(7-oxo-2,6-diazaspiro[3.4]octan-2-yl)isoindolin-1-one], the midpoint of inhibition, the IC50, lay at 286 nM.
Compound `O=C1NCc2c1cc(-c1ccc(F)cc1F)cc2-c1ccsc1` [Compound 15, 6-(2,4-difluorophenyl)-4-(thiophen-3-yl)isoindolin-1-one] returned an IC50 of 3230 nM.
`O=C1NCc2c1cc(-c1ccc(F)cc1F)cc2N1C[C@H]2C[C@@H]1CO2` (racemic) [Compound A21, rac-4-((1R,4R)-2-oxa-5-azabicyclo[2.2.1]heptan-5-yl)-6-(2,4-difluorophenyl)isoindolin-1-one]: it took 306 nM to reach half-maximal inhibition (IC50).
Same read-out and setting: in the case of `O=C1NCc2c1cc(-c1ccc(F)cc1F)cc2C1CCCCO1` (stereo not drawn) [Compound B10, 6-(2,4-difluorophenyl)-4-(tetrahydro-2H-pyran-2-yl)isoindolin-1-one] it was 329 nM; in that of `N#Cc1ccc(-c2cc(-c3ccc(F)cc3F)cc3c2CNC3=O)cn1` [Compound 33, 5-(6-(2,4-difluorophenyl)-1-oxoisoindolin-4-yl)picolinonitrile], 1540 nM.
Consider `O=C1NCc2c1cc(-c1ccc(F)cc1F)cc2-c1cnn(C2CCCCC2)c1` [Compound 21, 4-(1-cyclohexyl-1H-pyrazol-4-yl)-6-(2,4-difluorophenyl)isoindolin-1-one], for which the “Human mGlu2 GIRK IC50 (nM)” value is “Inactive”.
Regarding `O=C1NCc2c1cc(-c1cc(F)c(F)c(F)c1)cc2-c1cnsc1` [Compound 59, 4-(isothiazol-4-yl)-6-(3,4,5-trifluorophenyl)isoindolin-1-one], the IC50 is greater than 10000 nM.
The same measure, in the same setting: then `Cc1cc(-c2cc(C3=CCOCC3)cc3c2CNC3=O)n(C)n1` [Compound 96, 6-(3,6-dihydro-2H-pyran-4-yl)-4-(1,3-dimethyl-1H-pyrazol-5-yl)isoindolin-1-one], with 380 nM; and `COc1cc(-c2cc(-c3ccc(F)cc3F)cc3c2CNC3=O)cc(C)n1` [Compound 91, 6-(2,4-difluorophenyl)-4-(2-methoxy-6-methylpyridin-4-yl)isoindolin-1-one], with 433 nM.
With `Cc1cc(-c2cc3c(c(-c4cnsc4)c2)CNC3=O)c(F)cn1` [Compound 61, 6-(5-fluoro-2-methylpyridin-4-yl)-4-(isothiazol-4-yl)isoindolin-1-one], the IC50 was 1190 nM.
On to `COc1cc(F)c(-c2cc3c(c(-c4cnsc4)c2)CNC3=O)cc1F` [Compound 52, 6-(2,5-difluoro-4-methoxyphenyl)-4-(isothiazol-4-yl)isoindolin-1-one], for which the “Human mGlu2 GIRK IC50 (nM)” value is listed as “Inactive”.
With `O=C1NCc2c(CN3CC4CCC(C3)O4)cc(-c3ccc(F)cc3F)cc21` [Compound B7, 4-((8-oxa-3-azabicyclo[3.2.1]octan-3-yl)methyl)-6-(2,4-difluorophenyl)isoindolin-1-one], the IC50 turned out to be 292 nM.
Take `Cc1nn(C)c(C)c1-c1cc(C2=CCOCC2)cc2c1CNC2=O` [Compound 92, 6-(3,6-dihydro-2H-pyran-4-yl)-4-(1,3,5-trimethyl-1H-pyrazol-4-yl)isoindolin-1-one]: the IC50 was found to be 424 nM.
As to `O=C1NCc2c1cc(-c1ccc(F)cc1F)cc2-c1ccnnc1` [Compound 12, 6-(2,4-difluorophenyl)-4-(pyridazin-4-yl)isoindolin-1-one], half-maximal inhibition (IC50) was put at 1120 nM.
Still for that read-out and setting: then `O=C1NCc2c1cc(-c1c(F)cc(F)cc1F)cc2-c1cnsc1` [Compound 45, 4-(isothiazol-4-yl)-6-(2,4,6-trifluorophenyl)isoindolin-1-one], with 2070 nM.
On to `O=C1NCc2c1cc(-c1ccc(F)cc1F)cc2-c1cnn(C2CCCC2)c1` [Compound 16, 4-(1-cyclopentyl-1H-pyrazol-4-yl)-6-(2,4-difluorophenyl)isoindolin-1-one], for which the IC50 came to 3170 nM.
Turning to `Cc1cc(-c2cc3c(c(-c4cnsc4)c2)CNC3=O)c(F)cc1F` [Compound 50, 6-(2,4-difluoro-5-methylphenyl)-4-(isothiazol-4-yl)isoindolin-1-one], the IC50 is greater than 10000 nM.
`O=C1NCc2c1cc(-c1ccc(F)cc1F)cc2-c1ccc2ncccc2c1` [Compound 24, 6-(2,4-difluorophenyl)-4-(quinolin-6-yl)isoindolin-1-one] had an IC50 of 1660 nM.
Regarding `O=C1NCc2c1cc(-c1ccc(F)cc1F)cc2-c1ccc2nccnc2c1` [Compound 27, 6-(2,4-difluorophenyl)-4-(quinoxalin-6-yl)isoindolin-1-one], 1830 nM corresponded to half-maximal inhibition (IC50).
The compound `O=C1NCc2c(CN3CC(O)(C(F)(F)F)C3)cc(-c3ccc(F)cc3F)cc21` [Compound B8, 6-(2,4-difluorophenyl)-4-((3-hydroxy-3-(trifluoromethyl)azetidin-1-yl)methyl)isoindolin-1-one] came in with an IC50 of 193 nM.
With `Cc1ccncc1-c1cc(-c2ccc(F)cc2F)cc2c1CNC2=O` [Compound 89, 6-(2,4-difluorophenyl)-4-(4-methylpyridin-3-yl)isoindolin-1-one], inhibition was half-maximal at 118 nM (IC50).
`O=C1NCc2c1cc(-c1ccc(F)cc1F)cc2N1CC(O)(C(F)(F)F)C1` [Compound A19, 6-(2,4-difluorophenyl)-4-(3-hydroxy-3-(trifluoromethyl)azetidin-1-yl)isoindolin-1-one] had an IC50 of 1220 nM.
The compound `Cc1cc2n(n1)CCN2c1cc(-c2ccc(F)cc2F)cc2c1CNC2=O` [Compound A23, 6-(2,4-difluorophenyl)-4-(6-methyl-2,3-dihydro-1H-imidazo[1,2-b]pyrazol-1-yl)isoindolin-1-one] had an IC50 of 488 nM.
As to `Cc1sc(C)c(-c2cc(-c3ccc(F)cc3F)cc3c2CNC3=O)c1C` [Compound 20, 6-(2,4-difluorophenyl)-4-(2,4,5-trimethylthiophen-3-yl)isoindolin-1-one], the midpoint of inhibition, the IC50, lay at 5260 nM.
In the case of `O=C1NCc2c1cc(-c1ccc(F)cc1F)cc2-c1ccc2cnccc2c1` [Compound 23, 6-(2,4-difluorophenyl)-4-(isoquinolin-6-yl)isoindolin-1-one], the half-maximal inhibitory concentration (IC50) was 1380 nM.
As for `O=C1NCc2c1cc(-c1ccc(F)cc1F)cc2-c1cc2ccccc2s1` [Compound 28, 4-(benzo[b]thiophen-2-yl)-6-(2,4-difluorophenyl)isoindolin-1-one], the “Human mGlu2 GIRK IC50 (nM)” value is given as “Inactive”.

As usually defined, the IC50 is the concentration needed to halve the response being measured.
